Data reported in patent US8022036B2, “Use of thymosin alpha 1 for the treatment of immunological diseases” (Sigma-Tau Industrie Farmaceutiche Riunite S.p.A., priority 2006, dated 2011).

Key:
GM-DCs or FL-DCs = experiment: Cytokine production (ELISA) by murine GM-DCs or FL-DCs with Aspergillus conidia; assay type: cell-based, mouse; conditions: 1-MT added at 2 μM
Text: GM-DCs or FL-DCs were obtained from purified CD14+ monocytes from healthy donors or transplanted patients (1 month post-HSCT) cultured in Iscove's modified medium for 7-9 days, in the presence of rGM-CSF (Schering-Plough, Milan, Italy) and rIL-4 (Peprotech, Inalco, Milan, Italy) or FLT3-L (Immunex Corporation, Seattle, Wash.) (Blood. 2004; 103:4232-4239). DC recovery was between 20-30% reduced in cultures from transplanted patients. Murine GM-DCs or FL-DCs were obtained from bone marrow cells for 7-9 days, as described (Blood. 2004; 103:4232-4239). Thymosin alpha 1 and sThymosin alpha 1 were added to the cultures at 20 ng/mL. DCs (>99% CD11c+ consisting of 90-95% CD8-, 5-10% CD8+, and 1-5% B220+ cells) were purified from spleens (spDCs) by magnetic-activated sorting using CD11c MicroBeads and MidiMacs (Miltenyi Biotech). DC populations were further separated into CD8−, CD8+ and B220+ fractions by means of CD8 or B220 MicroBeads (Miltenyi Biotech). DCs were pulsed in serum-free Iscove medium for 24 hours with live unopsonized Aspergillus conidia or Zymosan from Saccharomyces cerevisiae (Sigma) or CpG-ODN 2006 as described.7 Phagocytosis was done as described (Blood. 2004; 103:4232-4239). Photographs were taken using a high Resolution Microscopy Color Camera AxioCam, using the AxioVision Software Rel. 3.1 (Carl Zeiss, Milan, Italy).
(§1) Cytokine content was assessed by enzyme-linked immunosorbent assays (Endogen Human Elisa Kits, R&D Systems and Euroclone, Milan, Italy). AID EliSpot assay kits (Amplimedical, Buttigliera Alta, Turin, Italy) were used on purified splenic CD4+ Tcells cocultured with conidia-pulsed DCs for 5 days to enumerate cytokine-producing cells (Blood. 2003; 102:3807-3814). 1-MT was used at 2 μM.
(B) Cytokine production (ELISA) by GM-DCs or FL-DCs cultured in serum-free medium (1×10^6 cells/mL) with unopsonized Aspergillus conidia (5×10^5/mL) for 24 hours. The IDO inhibitor 1-MT was added at 2 μM. Data are aggregated results from three independent experiments. The detection limits (pg/mL) of the assays were <16 for IL-12p70 and <12 for IL-10.

splenic CD4+ T cells = experiment: Th1/T reg priming in vitro of splenic CD4+ T cells by Aspergillus-pulsed DCs (ELISPOT, flow cytometry); assay type: cell-based, mouse
Description: IDO expression and functional activity were assessed as described in Nat. Immunol. 2002; 3:1097-1101. Generation, purification and activity of T reg cells Splenic CD4+ T-cells were cocultured with conidia-pulsed DCs for 5 days […] before flow cytometry or ELISPOT assay. 1-MT (Sigma-Aldrich) was used at 2 μM. CD4+CD25+ and CD4+CD25− cells (>90% pure on FACS analysis) were separated by magnetic cell sorting from lung and TLN (J. Immunol. 2006; 176:1712-1723). For T reg cell inhibition, 5×10^4 TLN T reg cells were added to 3×10^5 CD4+CD25− cells, both from transplanted mice, stimulated with 3×10^4 autologous Aspergillus conidia-pulsed spDCs or with or 1.5×10^5 allogeneic spDCs from naïve donor mice for five days before H^3-thymidine labeling. Purified peritoneal CD 11b+Gr−1+PMN (>98% pure on FACS analysis) (2×10^6) were exposed to resting conidia in the presence of 4×10^5 CD4+CD25+ for 60 min for oxidant production or 24 hours for cytokine production (J. Immunol. 2006; 176:1712-1723).
as §1
(A) Frequency of IFN-γ-/IL-10-producing splenic CD4+ T cells activated by Aspergillus-pulsed Thymosin alpha 1-treated GM-DCs or FL-DCs. 1-MT was present in selected cultures. Plates were read with the AID-EliSpot Reader System (Amplimedical). Values are means±SE per 10^6 cells of samples from 3-5 experiments, calculated using replicates of serial twofold dilutions of cells. (*) P<0.05, conidia-exposed versus unexposed cells; (**) P<0.05, thymosin-exposed versus unexposed cells.
(B) Phenotypic analysis of CD4+ cells cultured alone (−) or as in (A). Numbers represent the percentage of double positive cells.

Structure (SMILES): Cn1cc(CC(N)C(=O)O)c2ccccc21 (racemic) [1-MT, 1-methyl-DL-tryptophan]
- IL-10 production by DCs in response to Thymosin alpha 1 (GM-DCs or FL-DCs): blocked
- expansion of Foxp3+CTLA4+CD25+ T cells co-cultured with FL-DCs (splenic CD4+ T cells; 1-MT): appeared to interfere with the expansion
- IFN-γ-producing cells (splenic CD4+ T cells; IDO blockade, 1-MT 2 μM): had no effect
- activation of IL-10-producing CD4+ cells (splenic CD4+ T cells; IDO blockade, 1-MT 2 μM): prevented activation
